# Biological target: T1, human CCR6 (Homo sapiens, UniProt P51684)
# T1 construct: expressed in transfected cells; host or cells: Ba/F3 cells (mouse pro-B line)
# T1 sequence (P51684 1-374): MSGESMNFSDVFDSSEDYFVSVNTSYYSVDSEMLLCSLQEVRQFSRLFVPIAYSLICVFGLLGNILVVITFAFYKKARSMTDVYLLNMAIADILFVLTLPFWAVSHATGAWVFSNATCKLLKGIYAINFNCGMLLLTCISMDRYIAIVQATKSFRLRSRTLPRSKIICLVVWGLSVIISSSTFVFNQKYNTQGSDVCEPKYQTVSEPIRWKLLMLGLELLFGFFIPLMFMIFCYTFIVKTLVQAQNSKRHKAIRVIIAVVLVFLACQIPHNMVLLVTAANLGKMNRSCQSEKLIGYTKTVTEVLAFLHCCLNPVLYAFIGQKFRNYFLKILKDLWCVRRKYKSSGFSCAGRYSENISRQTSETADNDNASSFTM
# Experiment: Migration assay (chemotaxis, ChemoTX)
# Assay type: cell-based
# Details: hCCR6-transfected Ba/F3 cells in human serum, migration to recombinant human CCL20 10 nM, 37° C. 45 minutes; read-out: Potency (IC50 value in the migration assay)
# In short: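 Ba/F3 cells transfected with human CCR6 and butyrate-primed for 24 h were suspended at 4 million/ml in human serum with compound, serially diluted from a 1 μM final top concentration. Cells migrated through a 5-μm polycarbonate membrane toward 10 nM human CCL20 for 45 min at 37 °C. Migrated cells were quantified by CyQUANT fluorescence.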
row,Compound,IC50 [nM]
1,"Nc1n[nH]c2ncc(-c3ccc(S(=O)(=O)N4CC[C@@H](Nc5ccc(C(F)(F)F)cn5)[C@@H](O)C4)cc3)cc12 [Example 38, (3S,4R)-1-((4-(3-amino-1H-pyrazolo[3,4-b]pyridin-5-yl)phenyl)sulfonyl)-4-((5-(trifluoromethyl)pyridin-2-yl)amino)piperidin-3-ol]",< 1
2,"Cc1cnc(-c2cc(-c3ccc(S(=O)(=O)N4CC[C@@H](Nc5ccc(C(F)(F)F)cn5)[C@@H](O)C4)cc3)ccn2)o1 [Compound 70, (3S,4R)-1-((4-(2-(5-methyloxazol-2-yl)pyridin-4-yl)phenyl)sulfonyl)-4-((5-(trifluoromethyl)pyridin-2-yl)amino)piperidin-3-ol]",< 1
3,"O=S(=O)(c1ccc(-c2cncc(N3CCNCC3)c2)cc1)N1CC[C@@H](Nc2ccc(C(F)(F)F)cn2)[C@@H](O)C1 [Compound 76, (3S,4R)-1-((4-(5-(piperazin-1-yl)pyridin-3-yl)phenyl)sulfonyl)-4-((5-(trifluoromethyl)pyridin-2-yl)amino)piperidin-3-ol]",1 to 10
4,O=C1CN(c2ccc(-c3ccc(S(=O)(=O)N4CC[C@@H](Nc5ccc(C(F)(F)F)cn5)[C@@H](O)C4)cc3)cn2)CCN1 [Compound 178],< 1
5,COC1CN(c2cc(-c3ccc(S(=O)(=O)N4CC[C@@H](Nc5ccc(C(F)(F)F)cn5)[C@@H](O)C4)cc3)ccn2)C1 [Compound 136],1 to 10
6,CN1CC2(C1)CN(c1ccc(-c3ccc(S(=O)(=O)N4CC[C@@H](Nc5ccc(C(F)(F)F)cn5)[C@@H](O)C4)cc3)cn1)C2 [Compound 99],< 1
7,"Nc1n[nH]c2cc(-c3ccc(S(=O)(=O)N4CC[C@@H](Nc5ccc(C(F)(F)F)cn5)[C@@H](O)C4)cc3)ccc12 [Example 55, (3S,4R)-1-((4-(3-amino-1H-indazol-6-yl)phenyl)sulfonyl)-4-((5-(trifluoromethyl)pyridin-2-yl)amino)piperidin-3-ol]",< 1
8,"O=C1Cc2ccc(-c3ccc(S(=O)(=O)N4CC[C@@H](Nc5ccc(C(F)(F)F)cn5)[C@@H](O)C4)cc3)cc2N1 [Example 9, 6-(4-(((3S,4R)-3-hydroxy-4-((5-(trifluoromethyl)pyridin-2-yl)amino)piperidin-1-yl)sulfonyl)phenyl)indolin-2-one]",< 1
9,O=C(O)c1cc(-c2ccc(S(=O)(=O)N3CC[C@@H](Nc4ccc(C(F)(F)F)cn4)[C@@H](O)C3)cc2)ccn1 [Compound 208],10 to 1000
10,"O=S(=O)(c1ccc(-c2ccc(N3CCOCC3)nc2)cc1)N1CC[C@@H](Nc2ccc(C(F)(F)F)cn2)[C@@H](O)C1 [Compound 89, (3S,4R)-1-((4-(6-morpholinopyridin-3-yl)phenyl)sulfonyl)-4-((5-(trifluoromethyl)pyridin-2-yl)amino)piperidin-3-ol]",< 1
11,O=S(=O)(c1ccc(-c2ccc(N3CC[C@H](O)C3)nc2)cc1)N1CC[C@@H](Nc2ccc(C(F)(F)F)cn2)[C@@H](O)C1 [Compound 175],< 1
12,"Cc1c(-c2ccc(S(=O)(=O)N3CC[C@@H](Nc4ccc(C(F)(F)F)cn4)[C@@H](O)C3)cc2)cnc2[nH]ccc12 [Example 60, (3S,4R)-1-((4-(4-methyl-1H-pyrrolo[2,3-b]pyridin-5-yl)phenyl)sulfonyl)-4-((5-(trifluoromethyl)pyridin-2-yl)amino)piperidin-3-ol]",< 1
13,"NC(=O)c1cc(-c2ccc(S(=O)(=O)N3CC[C@@H](Nc4ccc(C(F)(F)F)cn4)[C@@H](O)C3)cc2)ccn1 [Example 31, 4-(4-(((3S,4R)-3-hydroxy-4-((5-(trifluoromethyl)pyridin-2-yl)amino)piperidin-1-yl)sulfonyl)phenyl)picolinamide]",< 1
14,"Cc1nc2[nH]ccc2cc1-c1ccc(S(=O)(=O)N2CC[C@@H](Nc3ccc(C(F)(F)F)cn3)[C@@H](O)C2)cc1 [Example 17, (3S,4R)-1-((4-(6-methyl-1H-pyrrolo[2,3-b]pyridin-5-yl)phenyl)sulfonyl)-4-((5-(trifluoromethyl)pyridin-2-yl)amino)piperidin-3-ol]",1 to 10
15,Cc1cc(-c2ccc(S(=O)(=O)N3CC[C@@H](Nc4ccc(C(F)(F)F)cn4)[C@@H](O)C3)cc2)ccn1 [Compound 163],< 1
16,O=C1C[C@@H](Nc2ccc(-c3ccc(S(=O)(=O)N4CC[C@@H](Nc5ccc(C(F)(F)F)cn5)[C@@H](O)C4)cc3)cn2)CN1 [Compound 168],< 1
17,"4-(4-(((3S,4R)-3-hydroxy-4-((4-(trifluoromethyl)phenyl)amino)piperidin-1-yl)sulfonyl)phenyl)picolinamide [Compound 81]",< 1
18,CN(C)C1CN(c2ccc(-c3ccc(S(=O)(=O)N4CC[C@@H](Nc5ccc(C(F)(F)F)cn5)[C@@H](O)C4)cc3)cn2)C1 [Compound 107],1 to 10
19,O=S(=O)(c1ccc(-c2cnc3[nH]ccc3c2Cl)cc1)N1CC[C@@H](Nc2ccc(C(F)(F)F)cn2)[C@@H](O)C1 [Compound 209],< 1

row,Compound,IC50 [nM]
1,NC(=O)c1cccc(-c2ccc(S(=O)(=O)N3CC[C@@H](Nc4ccc(C(F)(F)F)cn4)[C@@H](O)C3)cc2)c1 [Compound 117],< 1
2,CC(C)(O)C1CN(c2cc(-c3ccc(S(=O)(=O)N4CC[C@@H](Nc5ccc(C(F)(F)F)cn5)[C@@H](O)C4)cc3)ccn2)C1 [Compound 132],< 1
3,CN(C)c1cc(-c2ccc(S(=O)(=O)N3CC[C@@H](Nc4ccc(C(F)(F)F)cn4)[C@@H](O)C3)cc2)cc(C(N)=O)n1 [Compound 196],< 1
4,"O=c1[nH]c2cc(-c3ccc(S(=O)(=O)N4CC[C@@H](Nc5ccc(C(F)(F)F)cn5)[C@@H](O)C4)cc3)cnc2[nH]1 [Example 54, 6-(4-(((3S,4R)-3-hydroxy-4-((5-(trifluoromethyl)pyridin-2-yl)amino)piperidin-1-yl)sulfonyl)phenyl)-1,3-dihydro-2H-imidazo[4,5-b]pyridin-2-one]",< 1
5,O=S(=O)(c1ccc(-c2nnc(N3CCOCC3)o2)cc1)N1CC[C@@H](Nc2ccc(C(F)(F)F)cn2)[C@@H](O)C1 [Compound 194],10 to 1000
6,O=S(=O)(c1ccc(-c2cnc3c(O)nccc3c2)cc1)N1CC[C@@H](Nc2ccc(C(F)(F)F)cn2)[C@@H](O)C1 [Compound 190],< 1
7,O=C1C[C@H](Nc2cc(-c3ccc(S(=O)(=O)N4CC[C@@H](Nc5ccc(C(F)(F)F)cn5)[C@@H](O)C4)cc3)ccn2)CN1 [Compound 127],1 to 10
8,"O=c1[nH]ncc2cc(-c3ccc(S(=O)(=O)N4CC[C@@H](Nc5ccc(C(F)(F)F)cn5)[C@@H](O)C4)cc3)ccc12 [Example 5, 6-(4-(((3S,4R)-3-hydroxy-4-((5-(trifluoromethyl)pyridin-2-yl)amino)piperidin-1-yl)sulfonyl)phenyl)phthalazin-1(2H)-one]",< 1
9,O=S(=O)(c1ccc(-c2ccnc(N3CC4(CNC4)C3)c2)cc1)N1CC[C@@H](Nc2ccc(C(F)(F)F)cn2)[C@@H](O)C1 [Compound 141],1 to 10
10,"N#Cc1cc(-c2ccc(S(=O)(=O)N3CC[C@@H](Nc4ccc(C(F)(F)F)cn4)[C@@H](O)C3)cc2)ccn1 [Example 57, 4-(4-(((3S,4R)-3-hydroxy-4-((5-(trifluoromethyl)pyridin-2-yl)amino)piperidin-1-yl)sulfonyl)phenyl)picolinonitrile]",< 1
11,O=c1[nH]ncc2ccc(-c3ccc(S(=O)(=O)N4CC[C@@H](Nc5ccc(C(F)(F)F)cn5)[C@@H](O)C4)cc3)cc12 [Compound 180],< 1
12,N[C@H]1C[C@H](Nc2ccc(-c3ccc(S(=O)(=O)N4CC[C@@H](Nc5ccc(C(F)(F)F)cn5)[C@@H](O)C4)cc3)cn2)C1 [Compound 94],< 1
13,"NC(=O)c1cncc(-c2ccc(S(=O)(=O)N3CC[C@@H](Nc4ccc(C(F)(F)F)cn4)[C@@H](O)C3)cc2)c1 [Example 27, 5-(4-(((3S,4R)-3-Hydroxy-4-((5-(trifluoromethyl)pyridin-2-yl)amino)piperidin-1-yl)sulfonyl)phenyl)nicotinamide]",1 to 10
14,Cc1cc(C(N)=O)ncc1-c1ccc(S(=O)(=O)N2CC[C@@H](Nc3ccc(C(F)(F)F)cn3)[C@@H](O)C2)cc1 [Compound 147],< 1
15,"O=C1CCc2cc(-c3ccc(S(=O)(=O)N4CC[C@@H](Nc5ccc(C(F)(F)F)cn5)[C@@H](O)C4)cc3)ccc2N1 [Example 2, 6-(4-(((3S,4R)-3-hydroxy-4-((5-(trifluoromethyl)pyridin-2-yl)amino)piperidin-1-yl)sulfonyl)phenyl)-3,4-dihydroquinolin-2(1H)-one]",< 1
16,"Cn1nc(N)c2cc(-c3ccc(S(=O)(=O)N4CC[C@@H](Nc5ccc(C(F)(F)F)cn5)[C@@H](O)C4)cc3)ccc21 [Example 49, (3S,4R)-1-((4-(3-amino-1-methyl-1H-indazol-5-yl)phenyl)sulfonyl)-4-((5-(trifluoromethyl)pyridin-2-yl)amino)piperidin-3-ol]",< 1
17,NC(=O)c1ncc(-c2ccc(S(=O)(=O)N3CC[C@@H](Nc4ccc(C(F)(F)F)cn4)[C@@H](O)C3)cc2)[nH]1 [Compound 197],1 to 10
18,O=S(=O)(c1ccc(-c2ccc(N3CC4(CNC4)C3)nc2)cc1)N1CC[C@@H](Nc2ccc(C(F)(F)F)cn2)[C@@H](O)C1 [Compound 104],< 1
19,O=S(=O)(c1ccc(-c2ccnc(N3CCCCC3)c2)cc1)N1CC[C@@H](Nc2ccc(C(F)(F)F)cn2)[C@@H](O)C1 [Compound 145],< 1

# — patent publication US12018016B2, “Aryl sulfonyl (hydroxy) piperidines as CCR6 inhibitors” (CHEMOCENTRYX, INC., priority 2021, dated 2024)
